Measured values from US8962596B2 (Array BioPharma Inc., priority 2010, dated 2015).
pIC50: −log10 of the molar value.

How the values were obtained:
Format in all cases: biochemical
[1] = target: T1, Human Tyk2 kinase domain (Homo sapiens, UniProt P29597); assay: Tyk2 Inhibition Assay (Omnia kinase fluorescence peptide substrate assay); settings: averaged IC50 ranges; assay of Example A; 10 μM (Km app) or 1 mM ATP, 2 nM Tyk2
T1 construct: comprising amino acids 886 to 1187 with 10 additional histidine residues; 10xHis (histidine tag) (C, cleaved yes); made in house
T1 sequence (P29597 886-1187): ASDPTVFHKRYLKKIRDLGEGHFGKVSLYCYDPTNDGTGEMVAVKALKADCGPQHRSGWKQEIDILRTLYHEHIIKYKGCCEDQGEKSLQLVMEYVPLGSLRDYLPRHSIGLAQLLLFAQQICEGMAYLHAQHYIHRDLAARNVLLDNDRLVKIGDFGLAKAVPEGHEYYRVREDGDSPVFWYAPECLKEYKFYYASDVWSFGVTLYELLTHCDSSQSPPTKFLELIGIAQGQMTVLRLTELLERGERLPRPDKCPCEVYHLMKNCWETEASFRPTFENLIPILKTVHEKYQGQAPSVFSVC
Text: (§1) The assays described in Examples A, B, C and D for the determination of Tyk2, JAK1, JAK2 and JAK3 kinase activity, respectively, utilized the Omnia® Kinase fluorescence peptide substrate-based technology (Invitrogen). The specific components of the assay mixture are described in Examples A, B, C and D. In these assays, Mg^2+ is chelated upon phosphorylation of the Omnia peptide by the kinase to form a bridge between the chelation-enhanced fluorophore Sox and the phosphate, resulting in an increase in fluorescence emission at 485 nm when excited at […]. The reactions were therefore read at excitation 360 nm and emission was measured at 485 nm every 50 seconds for 45 minutes using a PerkinElmer EnVision Multilabel Plate Reader.
(§2) The final buffer conditions for Tyk2, JAK1, JAK2, and JAK3 assays were as follows: 25 mM HEPES, pH 7.4, 10 mM MgCl2, 0.01% Triton X-100 and 1 mM DTT.
(§3) Compounds were prepared at 50× the final concentration in DMSO by conducting 3-fold serial dilutions from a 500-μM intermediate dilution to give a 10-point dosing curve having a high dose of 10 μM. Two-μL aliquots of these were transferred to a fresh plate for a ten-fold intermediate dilution with assay buffer. Five-μL aliquots of the diluted compounds were then transferred to 20-μL of assay mixtures described in Examples A, B, C and D for a final concentration of DMSO of 2%. A standard or reference compound was typically included on each assay plate to validate that plate. For each plate, percent of control (POC) values were calculated for each well according to the following equation:
(§4) where Xmax=Average Uninhibited Controls • Xmin=Average Background IC50's were estimated from the POC's using a standard 4-parameter logistic model:
(§5) where • A=Minimum Y (Bottom Asymptote) • B=Maximum Y (Top Asymptote) • C=EC50 • D=Slope Factor • X=Compound Concentration (nM) • Y=POC
(§6) The IC50 is defined as the concentration of inhibitor at which the POC equals 50 for the fitted curve.
Compounds of Formula I were screened for their ability to inhibit Tyk2 using the general enzyme inhibition assay method, in which the assay mixture contained 10 μM (Km app) or 1 mM ATP, 8 μM Omnia® Y12 peptide (Catalog #IVGN KPZ3121C; Invitrogen Corporation, Carlsbad, Calif.) and 2 nM Tyk2 in a total volume of 20 μL. Human Tyk2 kinase domain, comprising amino acids 886 to 1187 with 10 additional histidine residues (histidine tag) on the carboxy terminus, was expressed and purified from bacculovirus in-house at Array BioPharma Inc. (Boulder, Colo.). The histidine tag was cleaved after purification using standard conditions.

[2] = target: T2, JAK1 (Homo sapiens, UniProt P23458); assay: JAK1 Inhibition Assay (Omnia kinase fluorescence peptide substrate assay); settings: averaged IC50 ranges; assay of Example B; 40 μM (Km app) or 1 mM ATP, 15 nM JAK1
T2 construct: purchased Invitrogen Corporation, Carlsbad, Calif; PV4775
T2 sequence (P23458 whole entry): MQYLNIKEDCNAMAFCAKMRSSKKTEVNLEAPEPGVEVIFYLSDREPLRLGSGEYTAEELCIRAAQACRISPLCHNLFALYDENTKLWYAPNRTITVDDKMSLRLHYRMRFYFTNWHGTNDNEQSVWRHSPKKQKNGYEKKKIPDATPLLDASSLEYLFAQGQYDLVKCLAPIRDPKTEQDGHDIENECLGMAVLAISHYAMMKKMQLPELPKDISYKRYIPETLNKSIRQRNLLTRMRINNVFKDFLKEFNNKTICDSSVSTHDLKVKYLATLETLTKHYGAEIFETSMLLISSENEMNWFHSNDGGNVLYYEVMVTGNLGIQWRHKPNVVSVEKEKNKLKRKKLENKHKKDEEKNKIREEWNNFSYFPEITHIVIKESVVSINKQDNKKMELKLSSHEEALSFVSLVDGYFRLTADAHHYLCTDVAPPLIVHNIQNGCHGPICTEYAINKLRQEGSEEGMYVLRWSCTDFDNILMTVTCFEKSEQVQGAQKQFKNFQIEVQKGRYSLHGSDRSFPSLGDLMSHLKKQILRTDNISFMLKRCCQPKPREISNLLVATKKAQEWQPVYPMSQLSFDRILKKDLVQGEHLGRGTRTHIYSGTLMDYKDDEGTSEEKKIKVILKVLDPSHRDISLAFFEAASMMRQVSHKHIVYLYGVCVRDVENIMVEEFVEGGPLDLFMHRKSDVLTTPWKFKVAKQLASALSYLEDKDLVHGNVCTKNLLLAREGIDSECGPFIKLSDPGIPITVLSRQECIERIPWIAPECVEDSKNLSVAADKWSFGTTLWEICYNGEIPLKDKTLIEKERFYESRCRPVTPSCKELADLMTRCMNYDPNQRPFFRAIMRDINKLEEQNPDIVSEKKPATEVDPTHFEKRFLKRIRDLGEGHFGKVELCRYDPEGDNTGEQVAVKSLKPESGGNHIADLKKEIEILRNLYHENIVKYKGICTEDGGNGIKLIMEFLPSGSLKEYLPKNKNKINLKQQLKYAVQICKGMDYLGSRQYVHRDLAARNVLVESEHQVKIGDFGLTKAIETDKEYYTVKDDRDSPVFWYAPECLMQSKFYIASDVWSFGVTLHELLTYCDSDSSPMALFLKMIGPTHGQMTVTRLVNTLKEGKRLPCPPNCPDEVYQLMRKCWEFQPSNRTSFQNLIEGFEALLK
Text: as §1, §2, §3, §4, §5, §6
Compounds of Formula I were screened for their ability to inhibit JAK1 using the general enzyme inhibition assay method, in which the assay mixture contained 40 μM (Km app) or 1 mM ATP, 8 μM Omnia® Y12 peptide (Catalog #IVGN KPZ3121C; Invitrogen Corporation, Carlsbad, Calif.) and 15 nM JAK1 in a total volume of 20 μL. JAK1 was purchased from Invitrogen Corporation, Carlsbad, Calif. (catalog #IVGN PV4775).

[3] = target: T3, JAK2 (Homo sapiens, UniProt O60674); assay: JAK2 Inhibition Assay (Omnia kinase fluorescence peptide substrate assay); settings: averaged IC50 ranges; assay of Example C; 25 μM (Km app) or 1 mM ATP, 5 nM JAK2
T3 construct: purchased Invitrogen Corporation, Carlsbad, Calif; PV4288
T3 sequence (O60674 whole entry): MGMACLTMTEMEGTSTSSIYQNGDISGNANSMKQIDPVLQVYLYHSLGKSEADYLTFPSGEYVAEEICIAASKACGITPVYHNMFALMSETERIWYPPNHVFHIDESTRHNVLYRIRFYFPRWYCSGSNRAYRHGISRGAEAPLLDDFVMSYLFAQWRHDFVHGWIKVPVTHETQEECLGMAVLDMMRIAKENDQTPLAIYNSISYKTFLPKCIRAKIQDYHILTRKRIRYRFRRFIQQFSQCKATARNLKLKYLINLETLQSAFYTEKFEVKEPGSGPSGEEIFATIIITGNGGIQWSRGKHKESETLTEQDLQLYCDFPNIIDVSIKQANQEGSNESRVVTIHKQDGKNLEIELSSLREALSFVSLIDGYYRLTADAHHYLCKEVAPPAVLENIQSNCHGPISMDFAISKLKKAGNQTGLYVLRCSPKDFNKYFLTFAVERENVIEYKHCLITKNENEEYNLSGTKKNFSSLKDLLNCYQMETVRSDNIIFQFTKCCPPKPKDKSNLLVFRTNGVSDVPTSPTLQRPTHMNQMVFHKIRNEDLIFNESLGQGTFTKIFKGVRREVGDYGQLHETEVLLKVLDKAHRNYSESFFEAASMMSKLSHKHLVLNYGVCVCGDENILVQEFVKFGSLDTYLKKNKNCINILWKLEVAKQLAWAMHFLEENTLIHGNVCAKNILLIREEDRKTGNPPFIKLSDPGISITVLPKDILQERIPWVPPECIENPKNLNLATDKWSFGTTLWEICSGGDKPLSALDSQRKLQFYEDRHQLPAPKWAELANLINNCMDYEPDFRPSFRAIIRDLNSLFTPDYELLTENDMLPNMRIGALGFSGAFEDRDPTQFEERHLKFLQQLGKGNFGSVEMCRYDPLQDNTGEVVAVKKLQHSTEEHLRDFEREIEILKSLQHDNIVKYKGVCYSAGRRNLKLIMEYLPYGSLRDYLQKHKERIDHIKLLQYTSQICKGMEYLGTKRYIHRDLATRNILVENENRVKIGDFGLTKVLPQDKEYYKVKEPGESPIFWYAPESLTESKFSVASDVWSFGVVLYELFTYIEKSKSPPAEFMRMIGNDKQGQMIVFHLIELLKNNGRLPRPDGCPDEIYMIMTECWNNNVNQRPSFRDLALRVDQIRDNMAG
Text: as §1, §2, §3, §4, §5, §6
(§7) Compounds of Formula I were screened for their ability to inhibit JAK2 using the general enzyme inhibition assay method, in which the assay mixture contained 25 μM (Km app) or 1 mM ATP, 10 μM Omnia® Y7 peptide (Catalog #IVGN KNZ3071C, Invitrogen Corporation, Carlsbad, Calif.) and 5 nM JAK2 in a total volume of 20 μL. JAK2 was purchased from Invitrogen Corporation, Carlsbad, Calif. (catalog #IVGN PV4288).

[4] = target: T4, JAK3 (Homo sapiens, UniProt P52333); assay: JAK3 Inhibition Assay (Omnia kinase fluorescence peptide substrate assay); settings: averaged IC50 ranges; assay of Example D; 10 μM (Km app) or 1 mM ATP, 2.5 nM JAK3
T4 construct: purchased Invitrogen Corporation, Carlsbad, Calif; PV4080
T4 sequence (P52333 1-1124): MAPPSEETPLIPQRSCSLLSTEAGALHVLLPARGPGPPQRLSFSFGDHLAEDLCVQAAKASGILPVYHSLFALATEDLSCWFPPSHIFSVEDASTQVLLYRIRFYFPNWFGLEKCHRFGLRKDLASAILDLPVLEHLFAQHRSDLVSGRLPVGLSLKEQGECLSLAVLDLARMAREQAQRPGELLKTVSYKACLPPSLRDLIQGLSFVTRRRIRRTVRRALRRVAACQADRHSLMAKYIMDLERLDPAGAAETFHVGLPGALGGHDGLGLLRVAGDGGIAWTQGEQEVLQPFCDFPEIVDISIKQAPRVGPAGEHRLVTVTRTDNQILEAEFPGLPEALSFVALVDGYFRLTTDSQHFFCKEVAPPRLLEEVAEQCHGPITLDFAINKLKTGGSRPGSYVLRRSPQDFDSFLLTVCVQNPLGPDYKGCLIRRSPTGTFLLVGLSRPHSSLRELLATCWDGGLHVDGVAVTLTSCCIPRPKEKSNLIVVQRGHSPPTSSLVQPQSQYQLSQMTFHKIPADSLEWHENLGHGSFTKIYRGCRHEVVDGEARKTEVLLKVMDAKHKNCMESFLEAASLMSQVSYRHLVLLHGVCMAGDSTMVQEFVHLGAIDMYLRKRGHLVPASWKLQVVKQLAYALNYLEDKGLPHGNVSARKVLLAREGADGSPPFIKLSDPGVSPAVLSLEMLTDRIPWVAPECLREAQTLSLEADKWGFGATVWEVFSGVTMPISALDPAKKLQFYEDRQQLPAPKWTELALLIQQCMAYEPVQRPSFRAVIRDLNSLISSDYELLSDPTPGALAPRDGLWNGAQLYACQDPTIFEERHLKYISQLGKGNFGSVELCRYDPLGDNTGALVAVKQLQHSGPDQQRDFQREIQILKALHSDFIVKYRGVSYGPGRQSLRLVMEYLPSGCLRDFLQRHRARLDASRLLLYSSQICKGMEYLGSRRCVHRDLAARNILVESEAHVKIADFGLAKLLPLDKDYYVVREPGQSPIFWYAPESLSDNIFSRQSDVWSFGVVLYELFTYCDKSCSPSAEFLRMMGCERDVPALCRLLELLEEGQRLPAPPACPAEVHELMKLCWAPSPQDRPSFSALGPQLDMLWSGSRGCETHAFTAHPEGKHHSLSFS
Text: as §1, §2, §3, §4, §5, §6
as §7, with “JAK3” for “JAK2”, “10” for “25”, “2.5” for “5”, “PV4080).” for “PV4288).”

Row | SMILES | pIC50 [1] | pIC50 [2] | pIC50 [3] | pIC50 [4]
1 | Cn1cc(-c2cc3nccn3c(-c3cnn(C(CC#N)c4ccncc4)c3)n2)cn1 (stereo not drawn) [Example 8, 3-(4-(7-(1-methyl-1H-pyrazol-4-yl)imidazo[1,2-c]pyrimidin-5-yl)-1H-pyrazol-1-yl)-3-(pyridin-4-yl)propanenitrile] | 7.00 to 8.00 | 6.00 to 7.00 | 7.00 to 8.00 | < 6.00
2 | COc1cncc(C(CC#N)n2cc(-c3nc(-c4cnn(C)c4)cc4nccn34)cn2)c1 (stereo not drawn) [Example 9, 3-(5-methoxypyridin-3-yl)-3-(4-(7-(1-methyl-1H-pyrazol-4-yl)imidazo[1,2-c]pyrimidin-5-yl)-1H-pyrazol-1-yl)propanenitrile] | 7.00 to 8.00 | 6.00 to 7.00 | 7.00 to 8.00 | < 6.00
3 | Cn1cc(-c2cc3nccn3c(-c3cnn(C(CC#N)c4cncc(Br)c4)c3)n2)cn1 (stereo not drawn) [Example 10, 3-(5-bromopyridin-3-yl)-3-(4-(7-(1-methyl-1H-pyrazol-4-yl)imidazo[1,2-c]pyrimidin-5-yl)-1H-pyrazol-1-yl)propanenitrile] | > 8.00 | 7.00 to 8.00 | 7.00 to 8.00 | 6.00 to 7.00
4 | Cn1cc(-c2cc3nccn3c(-c3cnn(C(CC#N)c4ccccc4)c3)n2)cn1 (stereo not drawn) [Example 11, 3-(4-(7-(1-methyl-1H-pyrazol-4-yl)imidazo[1,2-c]pyrimidin-5-yl)-1H-pyrazol-1-yl)-3-phenylpropanenitrile] | > 8.00 | 7.00 to 8.00 | 7.00 to 8.00 | 6.00 to 7.00
5 | Cn1cc(-c2cc3nccn3c(-c3cnn(C(CC#N)c4ccccc4Cl)c3)n2)cn1 (stereo not drawn) [Example 12, 3-(2-chlorophenyl)-3-(4-(7-(1-methyl-1H-pyrazol-4-yl)imidazo[1,2-c]pyrimidin-5-yl)-1H-pyrazol-1-yl)propanenitrile] | 7.00 to 8.00 | 7.00 to 8.00 | 7.00 to 8.00 | 6.00 to 7.00
6 | Cn1cc(-c2cc3nccn3c(-c3cnn(C(CC#N)c4cccc(Cl)c4)c3)n2)cn1 (stereo not drawn) [Example 13, 3-(3-chlorophenyl)-3-(4-(7-(1-methyl-1H-pyrazol-4-yl)imidazo[1,2-c]pyrimidin-5-yl)-1H-pyrazol-1-yl)propanenitrile] | > 8.00 | 7.00 to 8.00 | > 8.00 | 6.00 to 7.00
7 | Cn1cc(-c2cc3nccn3c(-c3cnn(C(CC#N)c4ccc(Cl)cc4)c3)n2)cn1 (stereo not drawn) [Example 14, 3-(4-chlorophenyl)-3-(4-(7-(1-methyl-1H-pyrazol-4-yl)imidazo[1,2-c]pyrimidin-5-yl)-1H-pyrazol-1-yl)propanenitrile] | 7.00 to 8.00 | 7.00 to 8.00 | 7.00 to 8.00 | 6.00 to 7.00
8 | Cn1cc(-c2cc3nccn3c(-c3cnn(C(CC#N)c4cccc(C(F)(F)F)c4)c3)n2)cn1 (stereo not drawn) [Example 15, 3-(4-(7-(1-methyl-1H-pyrazol-4-yl)imidazo[1,2-c]pyrimidin-5-yl)-1H-pyrazol-1-yl)-3-(3-(trifiuoromethyl)phenyl)propanenitrile] | > 8.00 | 7.00 to 8.00 | 7.00 to 8.00 | 6.00 to 7.00
9 | Cn1cc(-c2cc3nccn3c(-c3cnn(C(C)(CC#N)c4ccccc4)c3)n2)cn1 (stereo not drawn) [Example 16, 3-(4-(7-(1-methyl-1H-pyrazol-4-yl)imidazo[1,2-c]pyrimidin-5-yl)-1H-pyrazol-1-yl)-3-phenylbutanenitrile] | 6.00 to 7.00 | < 6.00 | 6.00 to 7.00 | < 6.00
10 | Cn1cc(-c2cc3nccn3c(-c3cnn(C(CC#N)C4CCCC4)c3)n2)cn1 (stereo not drawn) [Example 17, 3-cyclopentyl-3-(4-(7-(1-methyl-1H-pyrazol-4-yl)imidazo[1,2-c]pyrimidin-5-yl)-1H-pyrazol-1-yl)propanenitrile] | > 8.00 | 7.00 to 8.00 | 7.00 to 8.00 | < 6.00
11 | Cn1cc(-c2cc3nccn3c(-c3cnn(C(CC#N)C(C)(C)C)c3)n2)cn1 (stereo not drawn) [Example 18, 4,4-dimethyl-3-(4-(7-(1-methyl-1H-pyrazol-4-yl)imidazo[1,2-c]pyrimidin-5-yl)-1H-pyrazol-1-yl)pentanenitrile] | 7.00 to 8.00 | 6.00 to 7.00 | 6.00 to 7.00 | < 6.00
12 | Cn1cc(-c2cc3nccn3c(-c3cnn(CCC#N)c3)n2)cn1 [Example 19, 3-(4-(7-(1-methyl-1H-pyrazol-4-yl)imidazo[1,2-c]pyrimidin-5-yl)-1H-pyrazol-1-yl)propanenitrile] | 7.00 to 8.00 | 6.00 to 7.00 | 6.00 to 7.00 | < 6.00
